This is an account of results in patent EP4644396A1 (Visionpharma (Nantong) Co., Ltd, priority 2022, dated 2024).

The target of assay [1] is T1, human TLR8 (Homo sapiens, UniProt Q9NR97).
T1 construct: expressed in transfected cells
T1 sequence (Q9NR97 27-1041): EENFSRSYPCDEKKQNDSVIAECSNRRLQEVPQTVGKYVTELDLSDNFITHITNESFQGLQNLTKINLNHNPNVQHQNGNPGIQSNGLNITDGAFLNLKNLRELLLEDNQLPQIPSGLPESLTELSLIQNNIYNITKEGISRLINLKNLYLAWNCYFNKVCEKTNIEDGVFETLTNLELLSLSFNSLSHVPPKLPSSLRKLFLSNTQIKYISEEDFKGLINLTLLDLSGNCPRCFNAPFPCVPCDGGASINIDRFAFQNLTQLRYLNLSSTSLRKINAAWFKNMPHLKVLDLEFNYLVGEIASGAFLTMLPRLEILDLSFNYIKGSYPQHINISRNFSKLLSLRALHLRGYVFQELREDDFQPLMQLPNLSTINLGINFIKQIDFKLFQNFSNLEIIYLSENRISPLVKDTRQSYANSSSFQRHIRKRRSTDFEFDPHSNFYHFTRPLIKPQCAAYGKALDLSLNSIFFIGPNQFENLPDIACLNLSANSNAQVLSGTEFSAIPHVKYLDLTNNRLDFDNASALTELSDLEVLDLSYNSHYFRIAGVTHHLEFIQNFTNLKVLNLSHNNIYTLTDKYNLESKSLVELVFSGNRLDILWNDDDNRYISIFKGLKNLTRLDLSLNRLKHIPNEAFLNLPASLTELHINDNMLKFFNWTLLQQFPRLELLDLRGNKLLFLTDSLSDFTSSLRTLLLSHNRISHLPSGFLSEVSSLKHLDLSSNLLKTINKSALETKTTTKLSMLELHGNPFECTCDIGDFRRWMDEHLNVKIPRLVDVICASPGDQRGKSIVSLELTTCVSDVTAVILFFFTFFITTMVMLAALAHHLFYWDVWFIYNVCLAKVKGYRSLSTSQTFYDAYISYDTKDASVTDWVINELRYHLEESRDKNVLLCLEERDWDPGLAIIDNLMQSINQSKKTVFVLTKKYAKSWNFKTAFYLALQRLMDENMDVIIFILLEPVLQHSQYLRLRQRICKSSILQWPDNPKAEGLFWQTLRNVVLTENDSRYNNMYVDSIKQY
As to the kind of experiment: HEK-Blue hTLR8 SEAP reporter gene inhibition assay. Type of assay: cell-based. As to conditions: read-out: HEK-Blue hTLR8 IC50. A digest of the protocol: (§1)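 HEK-Blue cells stably expressing hTLR7 (80,000/well) or hTLR8 (60,000/well), SEAP under IFN-β minimal promoter with five NF-κB/AP-1 sites. Compounds (0.001–36 µM final) preincubated 15 min, then 10 µM ligand (Gardiquimod for TLR7) for 20 h. SEAP read with Quanti-Blue; IC50 calculated.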
Background: Reporter assays use an easily measured gene product as a stand-in for the process of interest.

In assay [2] the target is T2, human TLR7 (Homo sapiens, UniProt Q9NYK1).
T2 sequence (Q9NYK1 27-1049): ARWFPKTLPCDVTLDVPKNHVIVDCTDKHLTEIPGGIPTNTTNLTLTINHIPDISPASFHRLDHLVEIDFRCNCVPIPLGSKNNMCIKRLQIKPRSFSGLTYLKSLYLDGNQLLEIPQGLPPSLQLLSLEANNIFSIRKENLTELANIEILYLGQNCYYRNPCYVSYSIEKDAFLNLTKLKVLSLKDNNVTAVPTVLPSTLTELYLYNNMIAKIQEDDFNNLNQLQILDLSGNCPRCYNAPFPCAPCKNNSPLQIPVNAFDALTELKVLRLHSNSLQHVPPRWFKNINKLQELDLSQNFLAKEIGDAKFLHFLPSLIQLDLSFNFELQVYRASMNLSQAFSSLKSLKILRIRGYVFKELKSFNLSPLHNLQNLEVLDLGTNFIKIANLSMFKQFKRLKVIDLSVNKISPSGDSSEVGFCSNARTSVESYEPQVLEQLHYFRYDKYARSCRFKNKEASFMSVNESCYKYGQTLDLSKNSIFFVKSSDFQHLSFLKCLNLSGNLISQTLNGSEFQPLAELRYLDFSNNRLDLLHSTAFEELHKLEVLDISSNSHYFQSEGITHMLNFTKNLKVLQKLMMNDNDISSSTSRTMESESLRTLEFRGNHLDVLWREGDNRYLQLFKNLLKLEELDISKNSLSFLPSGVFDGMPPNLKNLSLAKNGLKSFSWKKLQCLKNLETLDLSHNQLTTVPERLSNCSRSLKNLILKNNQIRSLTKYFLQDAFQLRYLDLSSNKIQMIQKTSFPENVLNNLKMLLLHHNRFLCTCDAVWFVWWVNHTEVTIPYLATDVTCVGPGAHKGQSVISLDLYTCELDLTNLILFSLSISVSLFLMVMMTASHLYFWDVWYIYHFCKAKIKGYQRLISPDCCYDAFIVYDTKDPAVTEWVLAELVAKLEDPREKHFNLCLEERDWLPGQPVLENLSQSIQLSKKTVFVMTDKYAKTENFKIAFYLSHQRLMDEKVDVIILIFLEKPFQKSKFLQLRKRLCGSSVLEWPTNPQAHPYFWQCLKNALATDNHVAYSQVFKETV
As to the kind of experiment: HEK-Blue hTLR7 SEAP reporter gene inhibition assay. Type of assay: cell-based. As to conditions: read-out: HEK-Blue hTLR7 IC50. A digest of the protocol:
as §1

[3] abbreviates: hTLR8 HEK-Blue cells, TLR8 ligand 10 µM, 20 hours, SEAP by Quanti-blue, class symbols.
The mark [4] stands for this setting: hTLR7 HEK-Blue cells, TLR7 ligand Gardiquimod 10 µM, 20 hours, SEAP by Quanti-blue, class symbols.

Like-named read-outs stand apart in the source and are kept apart here.

For `C[C@@H]1CN(c2ccc(C#N)n3ncc(F)c23)Cc2c3c(nn21)CN(CC(C)(CO)CO)[C@@H](C)C3` [Example I-225, 3-Fluoro-4-((4R,9S)-8-(3-hydroxy-2-(hydroxymethyl)-2-methylpropyl)-4,9-dimethyl-3,4,7,8,9,10-hexahydropyrido[3',4':3,4]pyrazolo[1,5-a]pyrazin-2(1H)-yl)pyrazolo[1,5-a]pyridine-7-carbonitrile], the concentration for half-maximal inhibition (IC50) is above 100 nM in assay [1] and above 50 nM in assay [2].

In the case of `C[C@@H]1CN(c2ccc(C#N)n3ncc(F)c23)Cc2c3c(nn21)CN(C[C@](C)(O)CO)[C@@H](C)C3` [Example I-226, 4-((4R,9S)-8-((S)-2,3-dihydroxy-2-methylpropyl)-4,9-dimethyl-3,4,7,8,9,10-hexahydropyrido[3',4':3,4]pyrazolo[1,5-a]pyrazin-2(1H)-yl)-3-fluoropyrazolo[1,5-a]pyridine-7-carbonitrile], the IC50 in assay [1] (setting [3]) was above 100 nM; in assay [2] (setting [4]), below 50 nM.

For the molecule `N#Cc1ccc(N2C[C@H](N)C[C@H](C(F)(F)F)C2)c2cccnc12` [Example M5049, reference compound], the 50% inhibitory concentration (IC50) in assay [1] (hTLR8 HEK-Blue cells, TLR8 ligand 10 µM, 20 hours, SEAP by Quanti-blue, numeric value) was 150 nM; in assay [2] (hTLR7 HEK-Blue cells, TLR7 ligand Gardiquimod 10 µM, 20 hours, SEAP by Quanti-blue, numeric value), 64 nM.

On to “N-(tert-butyl)-2-((4R,9S)-2-(7-cyano-3-fluoropyrazolo[1,5-a]pyridin-4-yl)-4,9-dimethyl-1,2,3,4,9,10-hexahydropyrido[3',4':3,4]pyrazolo[1,5-a]pyrazin-8(7H)-yl)acetamide [Example I-154]”, for which the half-inhibitory concentration (IC50) in assay [1] (setting [3]) is above 100 nM; in assay [2] (setting [4]), above 50 nM.

Usually IC50 stands for the midpoint of a concentration-inhibition curve.
